Key:
Type in all cases: biochemical
Met = molecular target: T1, Met (Homo sapiens, UniProt P08581); assay: AlphaScreen kinase assay, Met; details: read-out: IC50, activity toward kinase Met
T1 construct: P1818.pETN6 BI-PTP MET G1056-G1364-X WT; His6 (N); made in house; host or cells: E. coli (PTP1B co-expressed)
Text: AlphaScreen assay was used to screen additional kinases. The assay is similarly dependent on the phosphorylation of a peptide substrate. In this assay, an antibody that recognizes phosphorylated substrate is bound to an acceptor bead. The peptide substrate is attached to biotin, which binds to a donor head that contains streptavidin. Thus phosphorylated substrate is bound by antibody and streptavidin, bringing the donor and acceptor heads into close proximity when kinase is not inhibited. The donor produces singlet oxygen which results in emission from the acceptor when they are in close proximity. Conversely, when kinase is inhibited, the donor and acceptor beads are not associated and the emission from the acceptor is reduced.
AlphaScreen assays were done using compounds dissolved in DMSO to a concentration of 20 mM. The compounds were diluted accordingly to the desired final concentrations in each sample well, using 1:3 serial dilution for a total of 8 concentration points.

B-Raf = molecular target: T2, B-Raf (Homo sapiens, UniProt P15056); assay: AlphaScreen kinase assay, B-Raf; details: read-out: IC50, activity toward kinase B-Raf
T2 construct: purchased Upstate Biotechnology
T2 sequence (P15056 whole entry): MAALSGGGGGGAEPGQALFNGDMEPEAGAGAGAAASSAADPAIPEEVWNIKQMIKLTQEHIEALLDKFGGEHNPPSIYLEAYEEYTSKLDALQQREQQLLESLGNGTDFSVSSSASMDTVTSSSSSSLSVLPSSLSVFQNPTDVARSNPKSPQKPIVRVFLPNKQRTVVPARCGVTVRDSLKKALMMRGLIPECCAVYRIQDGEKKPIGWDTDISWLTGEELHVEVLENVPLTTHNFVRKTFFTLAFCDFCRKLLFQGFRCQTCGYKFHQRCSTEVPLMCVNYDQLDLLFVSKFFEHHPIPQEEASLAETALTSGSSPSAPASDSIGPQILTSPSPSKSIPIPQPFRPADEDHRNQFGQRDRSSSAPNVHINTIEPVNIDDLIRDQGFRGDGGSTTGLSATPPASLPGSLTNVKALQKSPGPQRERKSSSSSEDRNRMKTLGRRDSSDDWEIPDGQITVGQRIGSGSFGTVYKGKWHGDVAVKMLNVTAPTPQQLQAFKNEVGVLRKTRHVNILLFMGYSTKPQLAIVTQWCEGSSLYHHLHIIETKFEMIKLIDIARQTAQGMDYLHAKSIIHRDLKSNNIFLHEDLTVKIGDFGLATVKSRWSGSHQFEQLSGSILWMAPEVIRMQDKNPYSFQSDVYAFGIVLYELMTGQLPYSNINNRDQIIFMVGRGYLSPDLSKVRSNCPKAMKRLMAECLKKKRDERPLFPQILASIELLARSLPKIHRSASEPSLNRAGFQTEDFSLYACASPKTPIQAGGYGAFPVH

B-Raf V600E = molecular target: T3, B-Raf V600E (Homo sapiens, UniProt P15056, V600E); assay: AlphaScreen kinase assay, B-Raf V600E; details: read-out: IC50, activity toward kinase B-Raf V600E
T3 construct: P4254. pFastBacBD-CDC37 BRAF D437-K722-X, V600E; His6 with pFastBac HT leader (TEV site) (N); made in house; host or cells: Sf9 (baculovirus; chaperone CDC37 co-expressed)
T3 sequence (P15056 with tags, fused parts or gaps V600E): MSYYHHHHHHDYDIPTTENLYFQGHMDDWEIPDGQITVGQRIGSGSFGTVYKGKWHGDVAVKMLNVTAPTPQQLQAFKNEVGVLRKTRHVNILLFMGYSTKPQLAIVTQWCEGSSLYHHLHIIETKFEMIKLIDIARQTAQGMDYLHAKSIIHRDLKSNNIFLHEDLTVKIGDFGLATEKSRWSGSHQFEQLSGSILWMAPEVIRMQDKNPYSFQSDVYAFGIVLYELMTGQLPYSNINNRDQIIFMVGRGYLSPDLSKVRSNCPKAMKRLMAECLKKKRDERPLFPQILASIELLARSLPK

Jnk3 = molecular target: T4, Jnk3 (Homo sapiens, UniProt P53779); assay: AlphaScreen kinase assay, Jnk3; details: read-out: IC50, activity toward kinase Jnk3
T4 construct: purchased Upstate Biotechnology

FGFR1 = molecular target: T5, FGFR1 (Homo sapiens, UniProt P11362, C488A/C584S); assay: AlphaScreen kinase assay, FGFR1; details: read-out: IC50, activity toward kinase FGFR
T5 construct: P1351.pET N6 BI-PTP FGFR A458-E765-X C488A, C584S; made in house; host or cells: E. coli (PTP1B co-expressed)
T5 sequence (P11362 458-765 C488A/C584S): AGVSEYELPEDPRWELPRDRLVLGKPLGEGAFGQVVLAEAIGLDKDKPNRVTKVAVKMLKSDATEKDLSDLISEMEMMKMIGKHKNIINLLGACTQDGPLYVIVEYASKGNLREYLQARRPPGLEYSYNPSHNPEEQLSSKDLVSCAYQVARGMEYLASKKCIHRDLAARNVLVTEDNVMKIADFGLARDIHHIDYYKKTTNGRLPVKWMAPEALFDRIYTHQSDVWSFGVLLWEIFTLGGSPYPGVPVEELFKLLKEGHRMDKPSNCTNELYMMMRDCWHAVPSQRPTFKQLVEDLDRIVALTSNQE

Ret = molecular target: T6, Ret (Homo sapiens, UniProt P07949); assay: AlphaScreen kinase assay, Ret; details: read-out: IC50, activity toward kinase Ret
T6 construct: P1378.pET-SF BI-PTP RET H661-R1012 HIS; made in house
T6 sequence (P07949 with tags, fused parts or gaps): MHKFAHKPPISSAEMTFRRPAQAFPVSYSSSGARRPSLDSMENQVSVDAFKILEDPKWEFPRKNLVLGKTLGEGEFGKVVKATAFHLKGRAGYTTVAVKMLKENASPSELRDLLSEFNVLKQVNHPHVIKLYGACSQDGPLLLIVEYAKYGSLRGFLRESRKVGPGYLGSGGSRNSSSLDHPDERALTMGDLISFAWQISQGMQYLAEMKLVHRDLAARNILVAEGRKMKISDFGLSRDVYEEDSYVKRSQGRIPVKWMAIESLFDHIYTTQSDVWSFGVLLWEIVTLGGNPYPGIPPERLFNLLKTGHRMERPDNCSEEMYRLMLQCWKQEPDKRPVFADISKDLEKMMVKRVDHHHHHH

c-Raf-1 = molecular target: T7, c-Raf-1 (Homo sapiens, UniProt P04049); assay: AlphaScreen kinase assay, c-Raf-1; details: read-out: IC50, activity toward kinase c-Raf-1
T7 construct: purchased Upstate Biotechnology

Jnk2 = molecular target: T8, Jnk2 (Homo sapiens, UniProt P45984); assay: AlphaScreen kinase assay, Jnk2; details: read-out: IC50, activity toward kinase Jnk2
T8 construct: purchased Roche Protein Expression Group (Indianapolis, IN)
T8 sequence (P45984 whole entry): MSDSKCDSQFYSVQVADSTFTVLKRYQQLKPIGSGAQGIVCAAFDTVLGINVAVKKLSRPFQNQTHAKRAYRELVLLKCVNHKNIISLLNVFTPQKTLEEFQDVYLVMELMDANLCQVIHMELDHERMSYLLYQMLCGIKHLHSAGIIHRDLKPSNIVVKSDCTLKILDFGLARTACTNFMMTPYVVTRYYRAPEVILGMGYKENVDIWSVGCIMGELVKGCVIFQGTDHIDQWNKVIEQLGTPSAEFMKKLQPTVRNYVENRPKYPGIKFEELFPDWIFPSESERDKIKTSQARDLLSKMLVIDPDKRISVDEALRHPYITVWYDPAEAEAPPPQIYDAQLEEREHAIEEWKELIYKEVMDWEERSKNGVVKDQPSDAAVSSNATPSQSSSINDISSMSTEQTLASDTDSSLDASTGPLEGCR
Outline: (§1)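 Peptide phosphorylation detected by proximity: streptavidin donor beads bind biotinylated substrate, acceptor beads carry antibody to phosphorylated substrate, singlet oxygen transfer gives emission. Dose-response over 8 points (1:3 steps); stocks 20 mM in DMSO.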

Jnk1 = molecular target: T9, Jnk1 (Homo sapiens, UniProt P45983); assay: AlphaScreen kinase assay, Jnk1; details: read-out: IC50, activity toward kinase Jnk1
T9 construct: purchased Upstate Biotechnology
T9 sequence (P45983 whole entry): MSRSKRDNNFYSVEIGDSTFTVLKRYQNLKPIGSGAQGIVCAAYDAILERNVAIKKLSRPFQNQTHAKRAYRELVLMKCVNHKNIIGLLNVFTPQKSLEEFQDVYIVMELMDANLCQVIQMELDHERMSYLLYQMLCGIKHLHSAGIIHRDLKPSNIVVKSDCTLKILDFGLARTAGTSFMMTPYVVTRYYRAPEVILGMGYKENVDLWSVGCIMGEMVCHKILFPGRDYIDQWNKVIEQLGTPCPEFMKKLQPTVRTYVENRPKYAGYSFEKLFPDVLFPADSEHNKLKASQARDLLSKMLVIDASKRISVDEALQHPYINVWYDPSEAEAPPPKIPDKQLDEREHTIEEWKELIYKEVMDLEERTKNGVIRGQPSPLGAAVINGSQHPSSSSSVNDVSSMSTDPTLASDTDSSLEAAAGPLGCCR

Fms = molecular target: T10, Fms (Homo sapiens, UniProt P07333); assay: AlphaScreen kinase assay, Fms; details: read-out: IC50, activity toward kinase Fms
T10 construct: purchased Upstate Biotechnology
T10 sequence (P07333 20-972): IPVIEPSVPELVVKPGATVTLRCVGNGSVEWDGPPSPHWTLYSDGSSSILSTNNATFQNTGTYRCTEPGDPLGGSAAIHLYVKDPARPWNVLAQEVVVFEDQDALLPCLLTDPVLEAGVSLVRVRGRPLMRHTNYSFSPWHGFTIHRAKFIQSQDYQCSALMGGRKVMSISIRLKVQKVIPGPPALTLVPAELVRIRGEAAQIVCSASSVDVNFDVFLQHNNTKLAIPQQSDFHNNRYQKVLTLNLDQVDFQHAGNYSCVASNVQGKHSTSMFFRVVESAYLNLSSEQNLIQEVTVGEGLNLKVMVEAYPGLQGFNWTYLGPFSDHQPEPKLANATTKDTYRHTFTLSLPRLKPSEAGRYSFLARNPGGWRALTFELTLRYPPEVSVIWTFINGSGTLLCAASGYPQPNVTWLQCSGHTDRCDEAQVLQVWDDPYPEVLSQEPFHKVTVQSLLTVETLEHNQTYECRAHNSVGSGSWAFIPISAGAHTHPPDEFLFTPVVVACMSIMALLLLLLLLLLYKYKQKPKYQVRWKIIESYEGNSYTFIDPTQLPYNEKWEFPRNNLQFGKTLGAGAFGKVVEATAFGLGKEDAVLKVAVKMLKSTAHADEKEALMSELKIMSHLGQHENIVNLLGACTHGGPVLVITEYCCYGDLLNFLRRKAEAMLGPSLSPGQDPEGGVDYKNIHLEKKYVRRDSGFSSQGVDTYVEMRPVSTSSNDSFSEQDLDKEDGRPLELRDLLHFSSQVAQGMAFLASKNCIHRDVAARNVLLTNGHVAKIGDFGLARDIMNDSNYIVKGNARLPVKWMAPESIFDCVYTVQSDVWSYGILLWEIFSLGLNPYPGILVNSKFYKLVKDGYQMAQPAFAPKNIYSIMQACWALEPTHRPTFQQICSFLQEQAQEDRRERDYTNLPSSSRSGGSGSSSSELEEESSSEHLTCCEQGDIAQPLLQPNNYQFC

Kdr = molecular target: T11, Kdr (Homo sapiens, UniProt P35968); assay: Z'-Lyte FRET kinase assay (Invitrogen), Kdr; details: read-out: IC50, activity toward kinase Kdr
T11 construct: purchased Invitrogen (assay run by Invitrogen)

Flt1 = molecular target: T12, Flt1 (Homo sapiens, UniProt P17948); assay: AlphaScreen kinase assay, Flt1; details: read-out: IC50, activity toward kinase Flt1
T12 construct: P1826.pETN6 BI-PTP FLT1 M799-D1165-X WT; His6 (N); made in house; host or cells: E. coli (PTP1B co-expressed)
T12 sequence (P17948 with tags, fused parts or gaps): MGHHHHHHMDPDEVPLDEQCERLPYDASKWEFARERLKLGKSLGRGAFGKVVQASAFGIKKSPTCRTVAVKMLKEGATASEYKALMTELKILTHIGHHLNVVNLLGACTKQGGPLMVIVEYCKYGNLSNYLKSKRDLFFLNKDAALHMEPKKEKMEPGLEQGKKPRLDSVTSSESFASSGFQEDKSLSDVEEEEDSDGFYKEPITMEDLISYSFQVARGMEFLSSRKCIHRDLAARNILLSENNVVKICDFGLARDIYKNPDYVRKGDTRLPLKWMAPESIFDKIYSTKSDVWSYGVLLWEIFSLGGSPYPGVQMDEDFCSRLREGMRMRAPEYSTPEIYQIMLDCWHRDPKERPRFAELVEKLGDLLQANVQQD

Kit = molecular target: T13, Kit (Homo sapiens, UniProt P10721); assay: AlphaScreen kinase assay, Kit; details: read-out: IC50, activity toward kinase Kit
T13 construct: P1332.N6 BI PTP KIT M552-K948-X COD; His6 (N); made in house; host or cells: E. coli (PTP1B co-expressed)

MAP4K4 = MAP4K4 (Homo sapiens, UniProt O95819); assay: AlphaScreen kinase assay, MAP4K4; details: read-out: IC50, activity toward kinase MAP4K4
Sequence of MAP4K4 (O95819 whole entry): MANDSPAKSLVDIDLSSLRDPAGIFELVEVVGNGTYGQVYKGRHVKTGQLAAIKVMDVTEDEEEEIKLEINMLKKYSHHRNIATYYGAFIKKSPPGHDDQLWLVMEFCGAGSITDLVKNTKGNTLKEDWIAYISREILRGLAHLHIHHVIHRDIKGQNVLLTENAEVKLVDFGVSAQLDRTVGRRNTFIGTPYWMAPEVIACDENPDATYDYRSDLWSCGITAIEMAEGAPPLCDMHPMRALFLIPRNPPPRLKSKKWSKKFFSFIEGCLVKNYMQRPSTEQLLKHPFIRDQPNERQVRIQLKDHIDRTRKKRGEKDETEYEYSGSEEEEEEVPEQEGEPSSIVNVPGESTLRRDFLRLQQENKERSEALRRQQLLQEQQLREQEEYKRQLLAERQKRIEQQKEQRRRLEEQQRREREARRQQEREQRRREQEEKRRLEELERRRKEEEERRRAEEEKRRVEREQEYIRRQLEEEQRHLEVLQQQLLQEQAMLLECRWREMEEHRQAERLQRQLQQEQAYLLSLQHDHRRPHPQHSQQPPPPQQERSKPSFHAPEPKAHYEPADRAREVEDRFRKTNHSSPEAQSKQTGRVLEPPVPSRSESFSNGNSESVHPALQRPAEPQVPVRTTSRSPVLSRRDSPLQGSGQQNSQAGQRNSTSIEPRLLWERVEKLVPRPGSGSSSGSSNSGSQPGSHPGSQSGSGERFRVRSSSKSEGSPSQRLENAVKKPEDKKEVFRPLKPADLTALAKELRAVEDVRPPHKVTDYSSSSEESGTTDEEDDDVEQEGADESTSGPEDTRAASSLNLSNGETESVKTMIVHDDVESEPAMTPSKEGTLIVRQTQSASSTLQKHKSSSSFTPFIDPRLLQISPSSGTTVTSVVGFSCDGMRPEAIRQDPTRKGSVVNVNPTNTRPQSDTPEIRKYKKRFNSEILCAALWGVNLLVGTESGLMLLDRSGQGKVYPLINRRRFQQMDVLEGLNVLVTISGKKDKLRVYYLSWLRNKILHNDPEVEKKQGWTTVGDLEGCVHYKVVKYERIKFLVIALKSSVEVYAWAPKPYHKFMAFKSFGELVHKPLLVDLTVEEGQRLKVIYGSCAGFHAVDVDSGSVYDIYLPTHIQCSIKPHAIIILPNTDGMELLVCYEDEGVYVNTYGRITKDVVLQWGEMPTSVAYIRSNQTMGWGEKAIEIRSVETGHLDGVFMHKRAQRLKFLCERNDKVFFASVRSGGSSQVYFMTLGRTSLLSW
Description: (§2) AlphaScreen assays were done using compounds dissolved in DMSO to a concentration of 20 mM. The compounds were diluted accordingly to the desired final concentrations in each sample well, using 1:3 serial dilution for a total of 8 concentration points. Plates were prepared such that each kinase reaction is 20 μl in 1× kinase buffer, 5% DMSO and 10 μM ATP. After incubation of the kinase reaction for 1 hour at room temperature, 5 μl of donor beads in stop buffer (50 mM EDTA in 1× kinase buffer) was added, the sample was mixed and incubated for 20 minutes at room temperature before adding 5 μl of acceptor beads in stop buffer. The samples were incubated for 60 minutes at room temperature and the signal per well was read on AlphaQuest reader.

Pyk2 = molecular target: T14, Pyk2 (Homo sapiens, UniProt Q14289); assay: AlphaScreen kinase assay, Pyk2; details: read-out: IC50, activity toward kinase Pyk2
T14 construct: purchased Upstate Biotechnology

Fak = molecular target: T15, Fak (Homo sapiens, UniProt Q05397); assay: AlphaScreen kinase assay, Fak; details: read-out: IC50, activity toward kinase Fak
T15 construct: P1358.pFastBacHtb FAK S411-Q686-X; His6 with pFastBacHTb leader (TEV site) (N); made in house; host or cells: Sf9 (baculovirus)
T15 sequence (Q05397 411-686): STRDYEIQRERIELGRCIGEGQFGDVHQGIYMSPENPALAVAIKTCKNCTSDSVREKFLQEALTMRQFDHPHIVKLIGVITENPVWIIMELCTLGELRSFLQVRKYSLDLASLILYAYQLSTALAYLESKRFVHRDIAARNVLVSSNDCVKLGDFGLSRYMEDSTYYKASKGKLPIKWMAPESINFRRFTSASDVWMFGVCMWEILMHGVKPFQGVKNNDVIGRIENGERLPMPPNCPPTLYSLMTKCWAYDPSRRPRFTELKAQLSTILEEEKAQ
Description: as §2

Src = molecular target: T16, Src (Homo sapiens, UniProt P12931); assay: AlphaScreen kinase assay, Src; details: read-out: IC50, activity toward kinase Src
T16 construct: P1144. pET-N6 BI-PTP SRC V86-L536-X; made in house

Zap70 = molecular target: T17, Zap70 (Homo sapiens, UniProt P43403); assay: AlphaScreen kinase assay, Zap70; details: read-out: IC50, activity toward kinase Zap70
T17 construct: P1868.pFastBac1 ZAP70 D327-G606 HIS, WT; His7 (HHHHHHH) (C); made in house
T17 sequence (P43403 with tags, fused parts or gaps): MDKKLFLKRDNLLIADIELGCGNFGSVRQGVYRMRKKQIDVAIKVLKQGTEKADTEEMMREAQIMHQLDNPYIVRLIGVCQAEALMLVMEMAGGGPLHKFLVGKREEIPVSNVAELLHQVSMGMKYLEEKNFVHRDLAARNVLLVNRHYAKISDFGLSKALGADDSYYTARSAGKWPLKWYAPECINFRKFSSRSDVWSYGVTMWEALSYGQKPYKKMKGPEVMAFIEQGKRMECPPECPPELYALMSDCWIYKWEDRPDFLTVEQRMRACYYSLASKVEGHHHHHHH
Outline: as §1

Measured: IC50

T1 sequence (P08581 with tags, fused parts or gaps): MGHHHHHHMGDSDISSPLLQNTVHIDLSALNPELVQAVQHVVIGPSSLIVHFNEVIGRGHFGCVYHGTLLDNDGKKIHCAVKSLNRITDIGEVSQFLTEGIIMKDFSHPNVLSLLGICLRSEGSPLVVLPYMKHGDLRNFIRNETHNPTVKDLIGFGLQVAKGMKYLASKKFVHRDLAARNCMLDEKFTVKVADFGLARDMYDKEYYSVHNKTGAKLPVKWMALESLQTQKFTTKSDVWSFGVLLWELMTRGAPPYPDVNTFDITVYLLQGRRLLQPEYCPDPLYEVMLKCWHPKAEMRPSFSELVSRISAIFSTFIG

O=C(c1c(F)ccc(O)c1F)c1c[nH]c2ncc(-c3cccnc3)cc12 [Compound P-0066, (2,6-Difluoro-3-hydroxy-phenyl)-(5-pyridin-3-yl-1H-pyrrolo[2,3-b]pyridin-3-yl)-methanone]
≤ 10 µM: Met | B-Raf | B-Raf V600E | Jnk3 | FGFR1 | Ret | c-Raf-1 | Jnk2 | Jnk1

CS(=O)(=O)Nc1ccc(F)c(C(=O)c2c[nH]c3ncc(-c4ccccc4)cc23)c1F [Compound P-0184, N-[2,4-Difluoro-3-(5-phenyl-1H-pyrrolo[2,3-b]pyridine-3-carbonyl)-phenyl]-methanesulfonamide]
not listed: MAP4K4 | Pyk2 | Fak | Src | Zap70
≤ 10 µM: all other assays above

O=C(Nc1ccc(Cc2c[nH]c3ncccc23)cc1)Nc1ccc(Cl)c(C(F)(F)F)c1 [Compound P-0369]
not listed: Jnk3 | Jnk2 | Jnk1 | Flt1 | Fak | Src | Zap70
≤ 10 µM: all other assays above

O=C(c1c(F)ccc(NS(=O)(=O)c2ccccc2)c1F)c1c[nH]c2ncc(-c3cccnc3)cc12 [Compound P-0685, N-[2,4-Difluoro-3-(5-pyridin-3-yl-1H-pyrrolo[2,3-b]pyridine-3-carbonyl)-phenyl]-benzenesulfonamide]
not listed: Jnk3 | Ret | Kdr | Zap70
≤ 10 µM: all other assays above

CS(=O)(=O)Nc1ccc(F)c(C(=O)c2c[nH]c3ncc(-c4cccc(C(N)=O)c4)cc23)c1F [Compound P-0721, 3-[3-(2,6-Difluoro-3-methanesulfonylamino-benzoyl)-1H-pyrrolo[2,3-b]pyridin-5-yl]-benzamide]
not listed: Jnk3 | Kdr | MAP4K4 | Pyk2 | Zap70
≤ 10 µM: all other assays above

CS(=O)(=O)Nc1ccc(F)c(C(=O)c2c[nH]c3ncccc23)c1F [Compound P-0811]
≤ 10 µM: Met | Fms | B-Raf V600E | FGFR1 | Ret | Fak | MAP4K4 | c-Raf-1

Clc1ccc(Nc2ccnc3[nH]ccc23)cc1Cl [Compound P-0842]
≤ 10 µM: Zap70 | Met | B-Raf | B-Raf V600E | c-Raf-1

From patent US8415469B2, “Compounds and methods for kinase modulation, and indications therefor” (Plexxikon Inc., priority 2005, dated 2013)
